Here are results for one compound from PubChem BioAssay AID1117276 (Broad Institute, 2014).

This test relates to orthopoxvirus-infected cells, imaging factory/early/late reporters. Description: orthopoxvirus gene expression and factory formation inhibitors, imaging, low MOI, factory DAPI readout, single point, dry powder (AID 1117276). Particulars: at 10 µM; hits give high values.

Results filed as inconclusive are left out. Activity calls are given as the source filed them. No rule for the calls is given here.

With `C[C@@H](O)C#Cc1ccc2c(c1)O[C@@H](CN(C)Cc1ccc(-c3ccccc3)cc1)[C@@H](C)CN([C@@H](C)CO)S2(=O)=O`, the activity score, factory formation (DAPI) was 36 (inactive).
